Measured values: patent US20090137493A1, “Inhibition of tumor metastases using protein kinase C (PKC) inhibitors” (priority 2007, published 2009)
Bridges are numbered along the chain shown (N, C = ends). Where no end group is shown, it is not given here.

Columns and labels:
[1] = test system: JC tumor cells; assay: Growth rate of JC tumor cells in vitro; assay type: cell-based, mouse; conditions: doses of 0, 1, 5 and 10 μM, compared to TAT carrier peptide control
Protocol: (§1) FIGS. 6B-6C are bar graphs showing the affect of the αV5-3-TAT peptide on growth rate of JC tumor cells (FIG. 6B) and 4T1 tumor cells (FIG. 6C) in vitro. The cells treated with the TAT carrier peptide (TAT) or with αV5-3-TAT peptide (PKC alpha inhibitor), at doses of 0, 1, 5, and 10 μM.
(§2) To determine if the effects observed with the α and βIIPKC peptide inhibitors was due to a decrease in metastasis as opposed to a decrease in primary tumor growth, animals injected with 4T1 tumor cells were treated with saline, the αV5-3-TAT conjugate peptide (αPKC), or the βIIV5-3-TAT conjugate peptide (βPKC) and the number of tumors cells at the primary site of injection were determined.

[2] = test system: 4T1 tumor cells; assay: Growth rate of 4T1 tumor cells in vitro; assay type: cell-based, mouse; conditions: doses of 0, 1, 5 and 10 μM, compared to TAT carrier peptide control
Protocol: as §1, §2

[3] = test system: tumor cells; assay: Adhesion of intravenously injected tumor cells to the lungs (imaging); assay type: in vivo, mice; conditions: for adhesion of tumor cells in the lung, imaging: versus TAT
Protocol: FIG. 7A is a bar graph showing the affect of αV5-3-TAT peptide on the adhesion of tumor cells into the lungs. Animals were treated with TAT carrier peptide (TAT), or αV5-3-TAT peptide (PKC alpha inhibitor), initiated two days before, and continued for 12 days following, injection of tumor cells intravenously;
FIGS. 7B-7C are images of mice two days after treatment as described in FIG. 7A. The mice in FIG. 7B were treated with TAT and the mice in FIG. 7C treated with αV5-3-TAT peptide.
FIGS. 7D-7E are images of mice following five days of treatment as described in FIG. 7A. The mice in FIG. 7D were treated TAT (control) and the mice in FIG. 7E were treated with αV5-3-TAT peptide (PKC a inhibitor).
For example, FIG. 7A is a bar graph showing the affect of αV5-3-TAT peptide on the adhesion of tumor cells into the lungs. In this experiment, animals were treated with TAT carrier peptide (TAT), or αV5-3-TAT peptide (PKC alpha inhibitor), for two days before injection of tumor cells intravenously. Adhesion of tumor cells to the lung was reduced in animals treated with the PKC alpha inhibitor compared to control animals.
FIGS. 7B and 7C are images of representative mice two days after treatment. The mice in FIG. 7B were treated with TAT and the mice in FIG. 7C treated with αV5-3-TAT peptide. […] FIGS. 7D-7E are images of mice following five days of treatment. The mice in FIG. 7D were treated TAT (control) and the mice in FIG. 7E were treated with αV5-3-TAT peptide (PKC a inhibitor).

[4] = test system: tumor cells; assay: Histology of lung tissue after fatpad implantation or intravenous injection of tumor cells; assay type: in vivo, mice; conditions: four weeks after fatpad implantation or two weeks after intravenous injection of tumor cells, versus TAT
Source text: FIGS. 8A-8B are computer-generated photomicrographs of lung tissue from mice four weeks following fatpad implantation of tumor cells. Osmotic pumps were implanted 1 week after fatpad implantation, for delivering TAT (control; FIG. 8A) or αV5-3-TAT peptide (PKC a inhibitor; FIG. 8B).
FIGS. 8C-8D are computer-generated photomicrographs of lung tissue from mice two weeks after intravenous injection of tumor cells. Osmotic pumps were implanted two days prior to […], for delivering TAT (control; FIG. 8C) or αV5-3-TAT peptide (PKC a inhibitor; FIG. 8D).
FIGS. 8A-8D are computer-generated photomicrographs of lung tissue from mice four weeks following fatpad implantation of tumor cells (FIGS. 8A-8B) or two weeks after intravenous injection of tumor cells (FIGS. 8C-8D).

[5] = test system: 4T1 cells; assay: Wound healing (migration) assay, 4T1; assay type: cell-based, mouse; conditions: peptide 1 uM, re-applied every 2 h for 8 h
Protocol: FIGS. 16A-16D are micrographs showing the efficacy of TAT carrier peptide (TAT; FIG. 16A), αV5-3-TAT peptide (Alpha; FIG. 16B), βIIV5-3 peptide (Beta2; FIG. 16C), and εV1-2 (Epsilon; FIG. 16D) on 4T1 cell migration.
To investigate the role of PKC inhibitors in reducing the migration of tumor cells, in vitro migration assays were performed using MDA-MB-231 breast cancer cells (FIGS. 12A-12D), MCF-7 breast cancer cell (FIGS. 13A-13D), JC cells (FIGS. 15A-15D), and 4T1 cells (FIGS. 16A-16D), in the presence of TAT carrier peptide (TAT), αV5-3-TAT peptide (Alpha), βIIV5-3 peptide (Beta2), or εV1-2 peptide (Epsilon).
Wound healing assay: Human or mouse breast cancer cell lines were grown in 6-well plates until about 90% confluent. Cells were then grown in serum free media overnight, before media was changed to media +1% FBS and peptide PKC inhibitors added (1 uM), at the same time a pipette tip was drawn across the cell layer to create a scrape ‘wound’. PKC inhibitors were re-applied every 2 h for a total of 8 h, before cells were left for a further 12 h and then the scrape was examined under phase contrast microscopy.

[6] = test system: MDA-MB-231 breast cancer cells; assay: Cell migration/invasion assay through a HUVEC monolayer, MDA-MB-231; assay type: cell-based, human; conditions: peptide 10 μM, re-applied every 2 hours for 10 hours
Source text: (§3) FIGS. 14A and 14B are bar graphs showing the efficacy of TAT carrier peptide (TAT), αV5-3-TAT peptide (Alpha), βIIV5-3 peptide (Beta-2), and εV1-2 (Epsilon) in inhibiting the invasion of human MDA-MB-231 and MCF-7 breast cancer cells through a HUVEC monolayer. FIGS. 14C and 14D are bar graphs showing the efficacy of TAT carrier peptide (TAT) or αV5-3-TAT peptide in inhibiting the invasion of 4T1 (FIG. 11C) and MDA-MB-231 (FIG. 11D) cells.
as §3, with “14B show the results of a related experiment measuring” for “14B are bar graphs showing”, “εV1-2 peptide” for “εV1-2”, “14D show the results of a similar experiment” for “14D are bar graphs”
Cell Migration/invasion assay: Primary human endothelial cells (HUVEC's) were plated on top of a matrigel plug in trans-well plates. Once the cells had reached confluence (as determined by examination of a control well), 1×10^6 human breast cancer cells (MCF-7 or MDA-MB-231) expressing luciferase were added above the HUVEC cell layer. Where applicable, peptides were added to a final concentration of 10 μM and re-applied every 2 hours for 10 hours followed by further incubation. After 24-48 hours-incubation the HUVEC cell layer (and all other cells above the matrigel) were removed by scraping of the cell layer into the media and aspiration (repeated 3 times). The relative numbers of cancer cells that had crossed the HUVEC cell layer and entered the matrigel was then determined by bioluminescence detection of luciferase action following addition of luciferin substrate.

## YGRKKRRQRRR-CC-QLVIAN (YGRKKRRQRRRCCQLVIAN; disulfide 12-13 (inferred)) [αV5-3-TAT]
[1]
  inhibition of growth of JC tumor cells in vitro: does not substantially inhibit
[2]
  inhibition of growth of 4T1 tumor cells in vitro: does not substantially inhibit
[3]; five days of treatment, FIGS. 7D-7E
  adhesion of tumor cells in the lung, imaging: reduced adhesion
[3]; treatment from two days before intravenous injection of tumor cells, FIG. 7A, versus TAT control
  adhesion of tumor cells to the lung: reduced
[3]; two days after treatment, FIGS. 7B-7C
  adhesion of tumor cells in the lung, imaging: reduced adhesion
[4]
  invasion of lung tissues by tumor cells (histology): reduced
[5]
  migration of 4T1 cells in vitro: did not affect
[6]
  invasion of MDA-MB-231 cells through a HUVEC monolayer: reduced
